The record followed here is US20240228481A1, “NOVEL SULFONAMIDE SERIES OF QR2 INHIBITORS TO TACKLE OXIDATIVE STRESS AND COGNITIVE DECLINE” (CARMEL HAIFA UNIVERSITY ECONOMIC CORPORATION LTD., priority 2021, published 2024).

Type in all cases: biochemical
Experiment [1] has as its target T1, QR1 (NQO1) (Homo sapiens, UniProt P15559).
T1 construct: purchased Sigma-Aldrich
Briefly: Selectivity assay with QR1 in place of QR2, absorbance readout. The protocol: (§1) The enzymatic activity of QR2 (10 nM) was measured using menadione (both Sigma-Aldrich) as substrate and dihydrobenzylnicotamide (BNAH; Tocris) as co-substrate (Boutin et al., 2005). The reaction was performed in 50 mM Tris HCl, 150 mM NaCl 0.01% Tween-20 pH=8.5 (Sigma-Aldrich) at room temperature. Briefly, 3 μL of menadione alone (200 μM) or a mixture of menadione and QR2 (200 μM of menadione and 10 nM of QR2) were dispensed in 1536-well black Nunc plates (Thermo-Fisher) using a Multidrop™ Combi Reagent Dispenser (Thermo-Fisher) and pre-incubated with compounds for 10 min. BNAH (200 μM) was then added (3 μL) to the reaction using a BioNex Solutions BNX 1536 plate washer and the plates were incubated for another 10 min. […] The initial HTS was done with approximately 200,000 compounds at a single concentration of 5 μM. The chemical libraries used were Selleck Chemicals Bioactives, the Drug-like set from Enamine, HitFinder collection from Maybridge, Spectrum Collection from Microsource, Lopac from Sigma-Aldrich and the diversity sets from ChemDiv and ChemBridge. Initial “hit” compounds were defined as causing >30% reduction of enzyme activity. Compounds suspected to be fluorescent were re-assayed in an absorbance assay at 350 nm using the same reaction but in a higher volume (100 μL), in a transparent plate (Greiner Bio-One). “Hit” compounds resulting from both the fluorescence and absorbance assay were tested in a dose-response, and median inhibition concentration (IC50) values were determined. In parallel, the same dose response was used in a selectivity assay where QR2 enzyme was replaced by QR1 (also known as—NQO1, 10 nM; Sigma-Aldrich).
(§2) In order to establish a varied, flexible and chemically amenable starting point from which to develop such inhibitors, the inventors ran a standardized QR2 assay (see methods) against ˜200,000 compounds, from a varied assortment of chemical libraries. […] Compounds that replicated the initial hit result were then assayed similarly, against NQO1, to evaluate compound specificity (FIG. 1B). From the HTS, a series of compounds containing a sulfonamide central linker, with an amine on one side and a heterocycle on the other, were identified and selected for SAR development (FIG. 1C).

In experiment [2] the target is T1, QR1 (NQO1). Description: Selectivity assay with QR1 in place of QR2, fluorescence readout. The protocol: as §1, §2
In experiment [3] the target is T2, QR2 (Homo sapiens, UniProt P16083).
T2 sequence (P16083 1-231): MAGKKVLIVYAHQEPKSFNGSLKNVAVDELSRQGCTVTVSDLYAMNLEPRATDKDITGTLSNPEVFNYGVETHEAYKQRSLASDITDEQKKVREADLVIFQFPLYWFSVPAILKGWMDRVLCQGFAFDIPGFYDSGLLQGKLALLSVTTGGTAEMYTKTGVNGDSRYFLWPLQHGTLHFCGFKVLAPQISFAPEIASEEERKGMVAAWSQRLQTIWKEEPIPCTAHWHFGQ
Description: QR2 enzymatic activity assay (menadione/BNAH), absorbance readout at 350 nm. Set-up: purchased Sigma-Aldrich. The protocol:
(§3) The enzymatic activity of QR2 (10 nM) was measured using menadione (both Sigma-Aldrich) as substrate and dihydrobenzylnicotamide (BNAH; Tocris) as co-substrate (Boutin et al., 2005). The reaction was performed in 50 mM Tris HCl, 150 mM NaCl 0.01% Tween-20 pH=8.5 (Sigma-Aldrich) at room temperature. Briefly, 3 μL of menadione alone (200 μM) or a mixture of menadione and QR2 (200 μM of menadione and 10 nM of QR2) were dispensed in 1536-well black Nunc plates (Thermo-Fisher) using a Multidrop™ Combi Reagent Dispenser (Thermo-Fisher) and pre-incubated with compounds for 10 min. BNAH (200 μM) was then added (3 μL) to the reaction using a BioNex Solutions BNX 1536 plate washer and the plates were incubated for another 10 min. […] The initial HTS was done with approximately 200,000 compounds at a single concentration of 5 μM. The chemical libraries used were Selleck Chemicals Bioactives, the Drug-like set from Enamine, HitFinder collection from Maybridge, Spectrum Collection from Microsource, Lopac from Sigma-Aldrich and the diversity sets from ChemDiv and ChemBridge. Initial “hit” compounds were defined as causing >30% reduction of enzyme activity. […] “Hit” compounds resulting from both the fluorescence and absorbance assay were tested in a dose-response, and median inhibition concentration (IC50) values were determined. In parallel, the same dose response was used in a selectivity assay where QR2 enzyme was replaced by QR1 (also known as—NQO1, 10 nM; Sigma-Aldrich).
(§4) In order to establish a varied, flexible and chemically amenable starting point from which to develop such inhibitors, the inventors ran a standardized QR2 assay (see methods) against ˜200,000 compounds, from a varied assortment of chemical libraries.

Experiment [4] addresses T2, QR2. Description: QR2 enzymatic activity assay (menadione/BNAH), fluorescence readout. Set-up: purchased Sigma-Aldrich. The protocol: as §3, §4

As a reminder, the IC50 is the concentration needed to halve the response being measured. A lower IC50 goes with greater potency.

T1 sequence (P15559 whole entry): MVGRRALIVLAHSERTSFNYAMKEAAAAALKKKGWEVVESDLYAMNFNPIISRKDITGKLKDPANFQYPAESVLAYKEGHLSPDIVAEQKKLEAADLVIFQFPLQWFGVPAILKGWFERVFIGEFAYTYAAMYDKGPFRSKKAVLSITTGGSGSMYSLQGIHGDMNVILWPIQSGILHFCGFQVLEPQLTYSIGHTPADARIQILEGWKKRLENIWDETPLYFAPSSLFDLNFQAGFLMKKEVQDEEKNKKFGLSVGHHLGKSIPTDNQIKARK

For `CCCn1cc(C2CCN(S(=O)(=O)c3ccc(C(C)(C)C)cc3)CC2)c2cccnc21` [PCM-0105813], the IC50 in experiment [1] was above 9.99 µM; in experiment [2], above 9.9 µM; in experiment [3], above 9.99 µM; in experiment [4], above 9.9 µM.

As to `Cc1cc(-c2ccc(C)c(S(=O)(=O)NCC3CCN(Cc4ccco4)CC3)c2)on1` [PCM-0136246], the half-maximal inhibitory concentration (IC50) was above 9.99 µM in experiment [1], above 9.9 µM in experiment [2], 2.56 µM in experiment [3] and 3.98 µM in experiment [4].

As for `CCN(CC)S(=O)(=O)c1cc(-c2nnc(-c3ccccc3)o2)ccc1C` [PCM-0127546], the IC50 is above 9.99 µM in experiment [1], above 9.9 µM in experiment [2], 3.12 µM in experiment [3] and 4.82 µM in experiment [4].

On to `Cc1nc(-c2ccc(C)c(S(=O)(=O)N(C)C)c2)cs1` [PCM-0213803], for which the IC50 in experiment [1] is above 9.99 µM; in experiment [2], above 9.99 µM; in experiment [3], 0.1 µM; in experiment [4], 2.8 µM.

For `Cc1cc(-c2ccc(C)c(S(=O)(=O)NCc3cccnc3)c2)n[nH]1` [PCM-0213811], the IC50 in experiment [1] was above 9.99 µM; in experiment [2], above 9.99 µM; in experiment [3], 0.98 µM; in experiment [4] it was 3.16 µM.

Turning to `CCOC(=O)c1c(S(=O)(=O)N(CC)c2cccc(C)c2)c(C)n(C)c1C` [PCM-0119438], the IC50 in experiment [1] was above 9.99 µM; in experiment [2], 5.39 µM; in experiment [3] it was 8.98 µM; in experiment [4] it was 3.59 µM.

Regarding `CCCS(=O)(=O)Nc1ccc2c(c1)C(=O)Nc1cc(C)ccc1O2` [PCM-0120253], the IC50 in experiment [1] is above 9.99 µM; in experiment [2], 4.6 µM; in experiment [3] it was 8.89 µM; in experiment [4], above 9.9 µM.

Regarding `Cc1ccn2cc(-c3ccc(C)c(S(=O)(=O)N4CCN(C(=O)c5ccco5)CC4)c3)nc2c1` [PCM-0213790], the IC50 in experiment [1] is 7.15 µM; in experiment [2], above 9.99 µM; in experiment [3] it was 0.11 µM; in experiment [4] it was 0.27 µM.

Turning to `Cc1ccc2nc(-c3cccc(S(=O)(=O)N4CCOCC4)c3)cn2c1` [PCM-0124615], the IC50 in experiment [1] was above 9.99 µM; in experiment [2], above 9.9 µM; in experiment [3] it was 1.65 µM; in experiment [4] it was 3.25 µM.

Take `Cc1ccc(-c2nnc(-c3ccccc3)o2)cc1S(=O)(=O)N1CCCCCC1` [PCM-0213797]: the IC50 in experiment [1] is above 9.99 µM; in experiment [2] it was above 9.99 µM; in experiment [3], 1.06 µM; in experiment [4] it was 3.38 µM.

Turning to `Cc1c(C)c(C)c(S(=O)(=O)N2CCNC(=O)C2)c(C)c1C` [PCM-0083647], the IC50 is above 9.8 µM in experiment [2] and 7.04 µM in experiment [4].

Regarding `CCOC(=O)C1CCN(S(=O)(=O)c2cc(-c3csc(C)n3)ccc2C)CC1` [PCM-0197024], the IC50 in experiment [1] was above 9.99 µM; in experiment [2], above 9.9 µM; in experiment [3], 3.2 µM; in experiment [4], 4.16 µM.

As to `Cc1nc(-c2ccc(C)c(S(=O)(=O)N3CCCCCC3)c2)cs1` [PCM-0213796], the IC50 in experiment [1] is above 9.99 µM; in experiment [2] it was above 9.99 µM; in experiment [3], 2.44 µM; in experiment [4], above 9.99 µM.

Turning to `Cc1ccc(-c2nnc(-c3ccccc3)o2)cc1S(=O)(=O)N(C)C` [PCM-0127506], the IC50 is above 9.99 µM in experiment [1], above 9.99 µM in experiment [2], 1.62 µM in experiment [3] and 2.2 µM in experiment [4].

As to `Cc1nc(-c2ccc(C)c(S(=O)(=O)N3CCN(C(=O)c4ccco4)CC3)c2)cs1` [PCM-0197066], the IC50 in experiment [1] is above 9.99 µM; in experiment [2] it was above 9.99 µM; in experiment [3] it was 1.28 µM; in experiment [4], 4.65 µM.

As to `CN(C)S(=O)(=O)c1cccc2ccccc12` [PCM-0071569], the IC50 in experiment [2] and in experiment [4] was above 9.8 µM throughout.

Consider `Cc1cc(-c2ccc(C)c(S(=O)(=O)Nc3ccc(Cl)cc3)c2)[nH]n1` [PCM-0186036], for which the IC50 in experiment [1] was above 9.99 µM; in experiment [2], above 9.99 µM; in experiment [3], 1.16 µM; in experiment [4] it was 2.36 µM.

Turning to `CS(=O)(=O)N(Cc1cccnc1)C1CN(C(=O)c2c[nH]c3ccccc23)C1` [PCM-0105406], the IC50 was above 9.99 µM in experiment [1], above 9.9 µM in experiment [2], 8.43 µM in experiment [3] and above 9.9 µM in experiment [4].

For `COCCNC(=O)N1CCN(S(=O)(=O)c2c(C)c(C)c(C)c(C)c2C)CC1` [PCM-0072788], the IC50 in experiment [2] and in experiment [4] was above 9.8 µM each time.

Regarding `CNC(=O)N1CCc2cc(S(=O)(=O)N3CCc4ccccc43)ccc21` [PCM-0181527], the IC50 is above 9.99 µM in experiment [1], above 9.9 µM in experiment [2], above 9.99 µM in experiment [3] and above 9.9 µM in experiment [4].

As for `Cc1cccn2cc(-c3cccc(S(=O)(=O)NCCCN4CCCC4=O)c3)nc12` [PCM-0213794], the IC50 is above 9.99 µM in experiment [1], above 9.99 µM in experiment [2], 0.11 µM in experiment [3] and 0.25 µM in experiment [4].

As to `Cc1csc(-c2cc(S(=O)(=O)NC3CCCCC3)c(C)n2C)n1` [PCM-0195577], the IC50 in experiment [1] is above 9.99 µM; in experiment [2] it was above 9.9 µM; in experiment [3], above 9.99 µM; in experiment [4], above 9.9 µM.

`Cc1cc(-c2ccc(C)c(S(=O)(=O)N3CCCCCC3)c2)[nH]n1` [PCM-0213795]: the IC50 is above 9.99 µM in experiment [1], above 9.99 µM in experiment [2], 0.28 µM in experiment [3] and 0.64 µM in experiment [4].

For the compound `Cc1nc(-c2ccc(C)c(S(=O)(=O)N3CCCC3)c2)cs1` [PCM-0213807], the IC50 in experiment [1] was above 9.99 µM; in experiment [2] it was above 9.99 µM; in experiment [3], 0.37 µM; in experiment [4], 1.55 µM.

Take `Cc1cc(-c2ccc(C)c(S(=O)(=O)NCCCN3CCCC3=O)c2)n[nH]1` [PCM-0213815]: the IC50 is above 9.99 µM in experiment [1], above 9.99 µM in experiment [2], 0.28 µM in experiment [3] and 0.93 µM in experiment [4].

For `Cc1cc(-c2ccc(C)c(S(=O)(=O)N3CCCC3)c2)n[nH]1` [PCM-0213806], the IC50 in experiment [1] is above 9.99 µM; in experiment [2], above 9.99 µM; in experiment [3], 0.05 µM; in experiment [4], 0.17 µM.

As to `CCOC(=O)c1c(S(=O)(=O)N2CCN(Cc3ccccc3)CC2)c(C)n(C)c1C` [PCM-0119478], the IC50 was above 9.99 µM in experiment [1], above 9.9 µM in experiment [2], above 9.99 µM in experiment [3] and above 9.9 µM in experiment [4].

In the case of `COc1cc(NS(C)(=O)=O)ccc1Cc1c2ccccc2nc2ccccc12` [PCM-0090313], the IC50 in experiment [2] and in experiment [4] was above 9.8 µM throughout.

`Cc1ccc(-c2cn3cccc(C)c3n2)cc1S(=O)(=O)N1CCN(C)CC1` [YB-540]: the results for the IC50 in experiment [2] and in experiment [4] were above 9.99 µM and 0.425 µM, respectively.

Take `Cc1ccn2cc(-c3cccc(S(=O)(=O)N(C)C)c3)nc2c1` [PCM-0213801]: the IC50 in experiment [1] and in experiment [2] was above 9.99 µM throughout.
